According to publication PMC6911004, “Fragment-based screening identifies molecules targeting the substrate-binding ankyrin repeat domains of tankyrase” (Scientific Reports, 2019):

Columns and labels:
TNKS2 ARC5 = target: T1, TNKS2 ARC5 (Homo sapiens, UniProt Q9H2K2); experiment: Differential scanning fluorimetry (DSF, thermal shift); type: binding; conditions: fragment 500 μM
T1 construct: followed by TNKS2 ARC5 (1 μL, 100 μM stock); His6-GST; made in house; host or cells: E. coli
Procedure: Therefore, we chose TNKS2 ARC5 for screening by DSF, anticipating the largest signal window for measuring changes in Tm upon fragment binding.
We screened 1869 compounds in duplicate at a concentration of 500 μM, which we considered a reasonable compromise between having a sufficiently high concentration to identify weak binders while minimising the likelihood of false positives through fragment precipitation/aggregation and non-specific binding. The final DMSO concentration was 5%. We calculated melting temperatures using both the inflection point and the maximum peak of first derivative data methods. Both methods generally agreed, unless the melt curve was biphasic or misshapen, with slightly lower variability for the […] Tm determination method (see Materials and Methods for experimental and analysis details).
We determined the melting temperature for the unbound ARC (Tm, 0) from the mean of 12 reference melting curves per plate, with 5% DMSO only. We calculated the change in melting temperature (ΔTm) by subtracting the mean Tm, 0 from Tm, compound. We tested compounds in duplicate, defining fragments as hits if they conferred a ΔTm outside two standard deviations (2σ) from the mean, in one or both replicates. To check for consistency between plates, we ran triplicate peptide controls; however, we excluded peptide ΔTm values from the calculation of the mean ΔTm to avoid skewing the results. We observed mean ΔTm values (IP/1st derivative methods) of −0.127/−0.331 °C and σ as 0.997/1.19 °C. A hit cut-off of 2σ gave absolute shifts of +1.87/+2.05 °C for compounds that stabilised and −2.13/−2.71 °C for compounds that destabilised the ARC (Fig. 2B).
For the screen, a C1000 thermal cycler (Bio-Rad) was used to record melt curves. SYPRO Orange was purchased as a 5000 × stock in DMSO from Sigma Aldrich. The ICR fragment library was available as 100 mM stocks in DMSO, and dispensed (25 nL) using an ECHO acoustic liquid handling system into white 384-well PCR plates (Framestar, 4titude). Wells were backfilled with DMSO (225 nL). Buffer (2.75 μL, 25 mM HEPES-NaOH pH 7.5, 100 mM NaCl, 2 mM TCEP) was added, followed by TNKS2 ARC5 (1 μL, 100 μM stock) and then SYPRO orange dye (1 μL, 25×). The plate was centrifuged after the addition of each reagent (1 min, 1000 × g). Final assay concentrations were as follows: TNKS2 ARC5 (20 μM); fragment (500 μM); SYPRO Orange dye (5×); DMSO (5% v/v) in a total volume of 5 μL. Peptide control wells (3BP2 TBM 16-mer, 200 μM, sequence LPHLQRSPPDGQSFRSW with C-terminal tryptophan added for photometric concentration measurements, the N-terminus acetylated and the C-terminus amide-capped) were plated in triplicate, and there were 12 blank wells per plate, with DMSO only (250 nL, 5% v/v). Melt curves were recorded from 20–95 °C, with the temperature ramped by 0.5 °C every 15 s. Data were analysed using Vortex (Dotmatics) software and melting temperatures calculated from both the inflection point and the maximum peak of 1st-derivative data. Data points were excluded if the melt curve was poor, i.e., if there was no fluorescence signal above baseline, high fluorescence intensity throughout, or if the melt curve was shallow (<1000 rfu difference between baseline and peak maximum). The unbound melting temperature was determined from the mean of 12 reference melting curves, with 5% DMSO only. The change in melting temperature (ΔTm) was calculated by subtracting the mean Tm, 0 from Tm, compound. Compounds were tested in duplicate, and fragments were defined as hits if they gave a ΔTm outwith 2 σ from the mean in one or both replicates.
For the experiment shown in Fig. 2A, ARC and 3BP2 TBM peptide concentrations were 20 and 200 μM, respectively, in 50 mM HEPES-NaOH pH 7.5, 100 mM NaCl, 2 mM TCEP and a total volume of 25 μL. SYPRO Orange was added at 5×. Data were recorded from 4–95 °C, with the temperature ramped by 0.5 °C every 15 s, using a CFX384 thermal cycler (Bio-Rad). […]

TNKS2 ARC4 = target: T2, TNKS2 ARC4 (Homo sapiens, UniProt Q9H2K2); experiment: Primary fragment screen by T2 relaxation-edited ligand-observed NMR (cocktails of four); type: binding; conditions: fragments 1 mM each, 35 μM protein
T2 construct: The cell was filled with TNKS2 ARC4 (488–649); His6-GST; made in house; host or cells: E. coli
T2 sequence (Q9H2K2 488-649): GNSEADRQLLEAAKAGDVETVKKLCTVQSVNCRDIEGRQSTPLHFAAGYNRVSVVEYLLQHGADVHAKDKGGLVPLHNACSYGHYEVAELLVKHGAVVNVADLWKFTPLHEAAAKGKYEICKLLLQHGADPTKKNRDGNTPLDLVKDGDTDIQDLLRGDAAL
Description: The hit rate for compounds confirmed to bind TNKS2 ARC5 as evaluated by NMR was relatively low, at 0.78%, and only 0.16% for fragments binding TNKS2 ARC4 and 5 competitively with a TBM peptide. Different screening assays often identify distinct hit fragments. There is no consensus on the most appropriate assays to use for fragment screening, especially against challenging targets such as protein-protein interactions. Often several orthogonal methods are used in series to narrow down fragment hits, or a combination of biophysical and biochemical assays to exclude false positives and identify binders that modulate protein activity. We therefore carried out an additional primary screen using T2 relaxation-edited ligand-observed NMR on TNKS2 ARC4, probing a subset of molecules from the ICR fragment library that was compatible with NMR. […]
Data were processed using Bruker Topsin 3.14, then analysed using the MNova Screen software. […] The relative peak intensity change (I) was calculated by Eq. 1 for all peaks in the 5.5–9.5 ppm region, for each compound.1 I=(Iblank−Iprotein)/Iblank
The average percentage change was then calculated, and compounds designated a hit if the signal was reduced by ≥26% (2 σ). […] Protein ^1H spectra of TNKS2 ARC4 (200 μM) were measured at 24 h intervals to ensure protein stability and folding for the duration of the screening experiments.

T1 sequence (Q9H2K2 641-800): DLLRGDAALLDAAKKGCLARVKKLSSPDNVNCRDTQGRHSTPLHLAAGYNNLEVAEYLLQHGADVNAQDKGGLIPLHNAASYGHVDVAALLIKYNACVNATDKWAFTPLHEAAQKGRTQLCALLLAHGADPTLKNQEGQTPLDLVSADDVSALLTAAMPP

| hit in DSF primary screen (TNKS2 ARC5) | hit in NMR primary screen (TNKS2 ARC4) | SMILES |
| --- | --- | --- |
| hits | hits | CCOc1cccc(-c2cc(N)[nH]n2)c1 [compound 6] |
| hits | hits | Nc1nc(Nc2ccccc2)nc2ccccc12 [compound 7] |
